Assay results published in article PMC9958325 (Nature Communications, 2023).
Where “and” joins values, the source holds several entries; their conditions need not be identical. Equal values may be shown once. Read-outs that look alike come from different tables or passages of the source.

Key:
[1] = Pharmacokinetic study in PXB-mice (human liver-chimeric); details: for Plasma concentration: p.o., individual animals (3 per time point), LC/MS/MS
[2] = system: SARS-CoV-2^WK-521; assay: microbe, parasite or virus in culture; format: cell-based; set-up: EC95, individual assays / EC95, Average: unit: µM
[3] = biological target: T1, human calpain (Homo sapiens, UniProt P07384); assay: Human calpain activity assay; format: biochemical; details: triplicate, read-out: %inhibition against humanCalpain
T1 sequence (P07384 2-714): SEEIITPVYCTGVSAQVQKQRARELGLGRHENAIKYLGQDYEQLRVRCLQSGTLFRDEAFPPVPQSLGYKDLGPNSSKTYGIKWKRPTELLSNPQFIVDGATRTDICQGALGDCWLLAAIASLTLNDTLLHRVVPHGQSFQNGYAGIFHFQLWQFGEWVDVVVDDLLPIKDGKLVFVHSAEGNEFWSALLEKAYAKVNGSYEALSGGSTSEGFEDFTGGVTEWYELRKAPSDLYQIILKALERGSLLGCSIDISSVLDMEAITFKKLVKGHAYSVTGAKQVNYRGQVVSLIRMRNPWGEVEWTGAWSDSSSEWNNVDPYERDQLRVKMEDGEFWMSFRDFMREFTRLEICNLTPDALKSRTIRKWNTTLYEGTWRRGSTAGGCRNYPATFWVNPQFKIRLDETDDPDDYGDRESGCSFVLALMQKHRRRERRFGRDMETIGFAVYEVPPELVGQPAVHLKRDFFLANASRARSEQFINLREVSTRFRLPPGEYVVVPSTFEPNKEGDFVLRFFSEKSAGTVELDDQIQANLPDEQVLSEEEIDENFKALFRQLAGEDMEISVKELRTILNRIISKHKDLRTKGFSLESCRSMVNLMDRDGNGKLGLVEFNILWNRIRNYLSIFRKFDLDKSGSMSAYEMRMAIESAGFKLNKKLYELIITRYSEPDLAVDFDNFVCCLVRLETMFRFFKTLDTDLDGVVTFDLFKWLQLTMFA
T1 sequence (P04632 1-268 partner): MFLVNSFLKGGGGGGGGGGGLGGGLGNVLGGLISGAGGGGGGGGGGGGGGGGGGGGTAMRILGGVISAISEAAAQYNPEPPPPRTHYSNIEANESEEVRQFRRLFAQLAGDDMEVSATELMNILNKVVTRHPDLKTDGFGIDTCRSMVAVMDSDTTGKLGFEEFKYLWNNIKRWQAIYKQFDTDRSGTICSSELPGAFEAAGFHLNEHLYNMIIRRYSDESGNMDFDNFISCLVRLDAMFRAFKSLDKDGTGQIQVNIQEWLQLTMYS

[4] = system: SARS-CoV-2 TKYTS14631/ο BA.5; assay: microbe, parasite or virus in culture; format: cell-based
[5] = system: SARS-CoV-2 TKYX00012/ο BA.1; assay: microbe, parasite or virus in culture; format: cell-based
[6] = system: SARS-CoV-2^WK521 in A549-ACE2-TMPRSS2 cells; assay: Antiviral assay, A549-ACE2-TMPRSS2 cells, WK521; format: cell-based
[7] = system: SARS-CoV-2 UT-NCD1757-1N/ο BA.2.75; assay: microbe, parasite or virus in culture; format: cell-based
[8] = system: SARS-CoV-2 TKYS02037/ο BA.2; assay: microbe, parasite or virus in culture; format: cell-based
[9] = system: SARS-CoV-2^WK521 in HeLa-ACE2-TMPRSS2 cells; assay: Antiviral assay, HeLa-ACE2-TMPRSS2 cells, WK521; format: cell-based

## CC(C)(C)[C@H](NC(=O)C(F)(F)F)C(=O)N1C[C@H]2[C@@H]([C@H]1C(=O)N[C@H](C#N)C[C@@H]1CCNC1=O)C2(C)C [Nirmatrelvir, reference compound]
[1]; male, PXB (human liver-chimeric), mouse, plasma, po, 10 mg/kg, Plasma concentration, PXB-mice, p.o. 10 mg/kg, 0.17 hr, individual mice
  concentration at 0.17 hr: 1600 ng/mL
[1]; male, PXB (human liver-chimeric), mouse, plasma, po, 10 mg/kg, Plasma concentration, PXB-mice, p.o. 10 mg/kg, 240 min, individual mice
  concentration at 240 min: 47.2 ng/mL
[1]; male, PXB (human liver-chimeric), mouse, plasma, po, 10 mg/kg, Plasma concentration, PXB-mice, p.o. 10 mg/kg, 4 hr, individual mice
  concentration at 4 hr: 50 ng/mL
[1]; male, PXB (human liver-chimeric), mouse, plasma, po, 10 mg/kg, Plasma concentration, PXB-mice, p.o. 10 mg/kg, 1440 min, individual mice
  concentration at 1440 min: 0.6 ng/mL
[1]; male, PXB (human liver-chimeric), mouse, plasma, po, 10 mg/kg, Plasma concentration, PXB-mice, p.o. 10 mg/kg, 24 hr, individual mice
  concentration at 24 hr: 0 ng/mL
[1]; 10 min
  Plasma concentration: 889.46 ng/mL and 980.64 ng/mL
[1]; 60 min
  Plasma concentration: 653.07 ng/mL and 318.79 ng/mL and 406.97 ng/mL
[1]; 240 min
  Plasma concentration: 34.58 ng/mL and 30.74 ng/mL
[1]; 480 min
  Plasma concentration: 4.42 ng/mL and 7.44 ng/mL and 18.67 ng/mL
[1]; 1440 min
  Plasma concentration: 0.61 ng/mL and 0.54 ng/mL
[2]
  EC95, Average: 7.815
  EC95, individual assays: 8.01 and 9.89 and 6.31 and 7.05
  SARS-CoV2 RNA VeroE6 cell-based assay EC95: 7.81 ± 1.55 µM
[2]; Severe acute respiratory syndrome coronavirus 2, Vero C1008, read-out: EC50, Average
  EC50: 0.943 µM
[2]; Severe acute respiratory syndrome coronavirus 2, Vero C1008, read-out: EC50, VeroE6 + 2 µM CP100356
  EC50: 0.025 µM
[2]; Severe acute respiratory syndrome coronavirus 2, Vero C1008, read-out: EC50, VeroE6 with CP100356, Average
  EC50: 0.025 µM
[2]; Severe acute respiratory syndrome coronavirus 2, Vero C1008, read-out: EC50, VeroE6 with CP100356, individual assays
  EC50: 0.022 µM
[2]; Severe acute respiratory syndrome coronavirus 2, Vero C1008, read-out: SARS-CoV2 RNA VeroE6 cell-based assay EC50
  EC50: 0.94 ± 0.21 µM
[2]; read-out: EC50, Average
  EC50: 1.02 µM
[2]; read-out: EC50, VeroE6 with CP100356, individual assays
  EC50: 0.027 µM
[2]; read-out: EC50, individual assays
  EC50: 1.09 µM and 0.7 µM and 1.15 µM and 0.83 µM and 1.47 µM
[3]; 0.000128 µM
  inhibition at 0.000128 µM: 0%
[3]; 0.00064 µM
  inhibition at 0.00064 µM: 0%
[3]; 0.0032 µM
  inhibition at 0.0032 µM: 0%
[3]; 0.08 µM
  inhibition at 0.08 µM: 0%
[3]; 0.4 µM
  inhibition at 0.4 µM: 0%
[4]; Severe acute respiratory syndrome coronavirus 2, Vero C1008, read-out: EC50 against TKYTS14631/ο BA.5
  EC50: 1.08 ± 0.15 µM
[4]; Severe acute respiratory syndrome coronavirus 2, Vero C1008, read-out: EC50 ο BA5, Average
  EC50: 1.08 µM
[4]; Severe acute respiratory syndrome coronavirus 2, Vero C1008, read-out: EC50 ο BA5, individual assays
  EC50: 0.999 µM
[4]; read-out: EC50 ο BA5, individual assays
  EC50: 0.988 µM and 1.25 µM
[5]; Severe acute respiratory syndrome coronavirus 2, Vero C1008, read-out: EC50 against KTKYX00012/ο BA.1
  EC50: 1.05 ± 0.061 µM
[5]; Severe acute respiratory syndrome coronavirus 2, Vero C1008, read-out: EC50 ο BA1, Average
  EC50: 1.05 µM
[5]; Severe acute respiratory syndrome coronavirus 2, Vero C1008, read-out: EC50 ο BA1, individual assays
  EC50: 1.1 µM
[5]; read-out: EC50 ο BA1, individual assays
  EC50: 1.06 µM and 0.98 µM
[6]; Severe acute respiratory syndrome coronavirus 2, SARS-CoV-2^WK521, read-out: EC50, A549-ACE2-TMPRSS2
  EC50: 0.017 ± 0.003 µM
[6]; Severe acute respiratory syndrome coronavirus 2, source data, read-out: EC50, A549-AEC2-TMPRSS2, Average
  EC50: 0.0174 µM
[6]; Severe acute respiratory syndrome coronavirus 2, source data, read-out: EC50, A549-AEC2-TMPRSS2, individual assays
  EC50: 0.02 µM
[6]; source data, read-out: EC50, A549-AEC2-TMPRSS2, individual assays
  EC50: 0.0174 µM and 0.0148 µM
[7]; Severe acute respiratory syndrome coronavirus 2, Vero C1008, read-out: EC50 against UT-NCD1757-1N/ο BA.2.75
  EC50: 0.967 ± 0.135 µM
[7]; Severe acute respiratory syndrome coronavirus 2, Vero C1008, read-out: EC50 ο BA2.75, Average
  EC50: 0.967 µM
[7]; Severe acute respiratory syndrome coronavirus 2, Vero C1008, read-out: EC50 ο BA2.75, individual assays
  EC50: 0.83 µM
[7]; read-out: EC50 ο BA2.75, individual assays
  EC50: 0.97 µM and 1.1 µM
[8]; Severe acute respiratory syndrome coronavirus 2, Vero C1008, read-out: EC50 against TKYVS2037/ο BA.2
  EC50: 1.24 ± 0.125 µM
[8]; Severe acute respiratory syndrome coronavirus 2, Vero C1008, read-out: EC50 ο BA2, individual assays
  EC50: 1.23 µM
[8]; read-out: EC50 ο BA2, individual assays
  EC50: 1.12 µM and 1.37 µM
[9]; Severe acute respiratory syndrome coronavirus 2, SARS-CoV-2^WK521, read-out: EC50, HeLa-ACE2-TMPRSS2
  EC50: 0.24 ± 0.05 µM
[9]; Severe acute respiratory syndrome coronavirus 2, read-out: EC50, HeLa-AEC2-TMPRSS2, individual assays, source data
  EC50: 0.3 µM
[9]; Severe acute respiratory syndrome coronavirus 2, source data, read-out: EC50, HeLa-AEC2-TMPRSS2, Average
  EC50: 0.237 µM
[9]; read-out: EC50, HeLa-AEC2-TMPRSS2, individual assays, source data
  EC50: 0.2 µM and 0.21 µM
